Test results as given in patent publication US9708336B2, “Metallo-beta-lactamase inhibitors” (priority 2014, dated 2017).
pIC50: −log10 of the molar value. Where two headings read alike, the source gives them in different places.

Columns and labels:
NDM-1 = NDM-1 (Klebsiella pneumoniae, UniProt C7C422); assay: biochemical; format: biochemical; conditions: NDM-1 enzyme, CCF2-FA substrate; read-out: NDM-1 IC50
IMP-1 = IMP-1 (Serratia marcescens, UniProt P52699); assay: biochemical; format: biochemical; conditions: IMP-1 enzyme, CCF2-FA substrate; read-out: IMP-1 IC50
VIM-1 = VIM-1 (Pseudomonas aeruginosa (strain ATCC 15692 / DSM 22644 / CIP 104116 / JCM 14847 / LMG 12228 / 1C / PRS 101 / PAO1), UniProt A0A0F7KYQ8); assay: Enzyme activity: determination of IC50, fluorescence assay with CCF2-FA substrate (VIM-1); format: biochemical; conditions: CCF2-FA substrate
[1] = system: Escherichia coli expressing NDM-1 (CLB30016); assay: Antibiotic potentiation activity: synergistic concentration (MITC95) with imipenem, OD600 growth; format: cell-based; conditions: (CLB30016, NDM-1), 95% growth inhibition
In short: (§1)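 CLB30005 was precultured on Mueller Hinton agar with 8 ug/ml imipenem, the other strains on trypticase soy agar with 5% sheep blood, overnight at 35 °C. Saline suspensions diluted 1:100 in 1.1× CAMHB received compound and 4 μg/ml imipenem, then 22–24 h at 35 °C before absorbance reading.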

[2] = system: Klebsiella pneumoniae expressing VIM-1 (IHMA599644); assay: as above; format: cell-based; conditions: Klebsiella pneumoniae IHMA599644 (VIM-1), 95% growth inhibition
In short: as §1

[3] = system: Serratia marcescens expressing IMP-1 (CL5741); assay: as above; format: cell-based; conditions: Serratia marcescens CL5741 (IMP-1), 95% growth inhibition
In short: as §1

[4] = VIM-1 enzyme, read-out: VIM-1 IC50

Chain of NDM-1 (C7C422 whole entry, looked up, species assumed): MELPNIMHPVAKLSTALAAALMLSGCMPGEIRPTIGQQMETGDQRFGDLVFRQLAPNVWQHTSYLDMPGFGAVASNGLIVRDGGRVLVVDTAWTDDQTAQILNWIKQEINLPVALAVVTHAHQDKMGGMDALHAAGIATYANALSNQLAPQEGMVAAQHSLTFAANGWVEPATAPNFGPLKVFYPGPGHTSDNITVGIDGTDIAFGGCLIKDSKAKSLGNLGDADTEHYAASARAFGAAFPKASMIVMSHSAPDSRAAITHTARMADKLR
Chain of IMP-1 (P52699 whole entry, looked up): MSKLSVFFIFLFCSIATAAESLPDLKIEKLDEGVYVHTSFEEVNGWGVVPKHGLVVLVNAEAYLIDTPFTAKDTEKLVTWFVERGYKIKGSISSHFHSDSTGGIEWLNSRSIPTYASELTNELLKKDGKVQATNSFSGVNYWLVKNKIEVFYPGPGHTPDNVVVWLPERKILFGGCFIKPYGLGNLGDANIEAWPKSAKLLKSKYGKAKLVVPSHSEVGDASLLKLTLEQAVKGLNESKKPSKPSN

Row | SMILES | pIC50 (NDM-1) | pIC50 (IMP-1) | pIC50 (VIM-1; [4]) | Escherichia coli MITC95 [1] [µM] | Klebsiella pneumoniae MITC95 [2] [µM] | Serratia marcescens MITC95 [3] [µM] | pIC50 (VIM-1; VIM-1 IC50, VIM-1 enzyme)
1 | CN(C)C1CCN(c2ccc(-c3cccc(S(N)(=O)=O)c3-c3nnn[nH]3)cn2)C1 (stereo not drawn) [Example 627, 3-[6-[3-(dimethylamino)pyrrolidin-1-yl]-3-pyridyl]-2-(1H-tetrazol-5-yl)benzenesulfonamide] | 7.48 | 6.38 | 6.08 | 1.172 | 100 | 12.5 | –
2 | CN(CCN1CCCC1)c1ccc(-c2cccc(S(N)(=O)=O)c2-c2nnn[nH]2)cn1 [Example 629, 3-[6-[methyl(2-pyrrolidin-1-ylethyl)amino]-3-pyridyl]-2-(1H-tetrazol-5-yl)benzenesulfonamide] | 7.36 | 6.10 | 6.17 | 4.688 | 100 | 25 | –
3 | NS(=O)(=O)c1cccc(-c2ccc(N3CC(CN4CCCC4)C3)nc2)c1-c1nnn[nH]1 [Example 630, 3-[6-[3-(pyrrolidin-1-ylmethyl)azetidin-1-yl]-3-pyridyl]-2-(1H-tetrazol-5-yl)benzenesulfonamide] | 7.49 | 6.41 | 6.20 | 1.172 | 50 | 12.5 | –
4 | CS(=O)(=O)C1CN(c2ccc(-c3cccc(S(N)(=O)=O)c3-c3nnn[nH]3)cn2)C1 [Example 631, 3-[6-(3-methylsulfonylazetidin-1-yl)-3-pyridyl]-2-(1H-tetrazol-5-yl)benzenesulfonamide] | 8.08 | 7.40 | 6.96 | 1.953 | 25 | 6.25 | –
5 | CN1CCC2(CCN(c3ccc(-c4cccc(S(N)(=O)=O)c4-c4nnn[nH]4)cn3)C2)C1 (stereo not drawn) [Example 632, 3-[6-(7-methyl-2,7-diazaspiro[4.4]nonan-2-yl)-3-pyridyl]-2-(1H-tetrazol-5-yl)benzenesulfonamide] | 7.57 | 6.59 | 6.32 | 1.172 | 100 | 6.25 | –
6 | NS(=O)(=O)c1cccc(-c2ccc(N3CCC(O)C3)nc2)c1-c1nnn[nH]1 (stereo not drawn) [Example 633, 3-[6-(3-hydroxypyrrolidin-1-yl)-3-pyridyl]-2-(1H-tetrazol-5-yl)benzenesulfonamide] | 8.31 | 7.18 | 6.92 | 0.125 | 37.5 | 4.833 | –
7 | CC1(O)CN(c2ccc(-c3cccc(S(N)(=O)=O)c3-c3nnn[nH]3)cn2)C1 [Example 635, 3-[6-(3-hydroxy-3-methyl-azetidin-1-yl)-3-pyridyl]-2-(1H-tetrazol-5-yl)benzenesulfonamide] | 8.31 | 7.04 | 6.59 | 2.148 | 112.5 | 7.813 | –
8 | CNCCN(C)c1ccc(-c2cccc(S(N)(=O)=O)c2-c2nnn[nH]2)cn1 [Example 637, 3-[6-[methyl-[2-(methylamino)ethyl]amino]-3-pyridyl]-2-(1H-tetrazol-5-yl)benzenesulfonamide] | 7.28 | 6.03 | – | 2.344 | 50 | 25 | 6.34
9 | NS(=O)(=O)c1cccc(-c2ccc(NCC3CCN3)nc2)c1-c1nnn[nH]1 (stereo not drawn) [Example 638, 3-[6-(azetidin-2-ylmethylamino)-3-pyridyl]-2-(1H-tetrazol-5-yl)benzenesulfonamide] | 7.26 | 6.23 | – | 0.7813 | 12.5 | 12.5 | 6.74
10 | NCCNc1nc2c(-c3cccc(S(N)(=O)=O)c3-c3nn[nH]n3)cccc2s1 [Example 639, 3-[2-(2-aminoethylamino)-1,3-benzothiazol-4-yl]-2-(2H-tetrazol-5-yl)benzenesulfonamide] | 8.70 | 6.73 | 7.98 | 1.563 | 6.25 | 25 | –
11 | CN(C)CCNc1nc2c(-c3cccc(S(N)(=O)=O)c3-c3nn[nH]n3)cccc2s1 [Example 640, 3-[2-[2-(dimethylamino)ethylami-no]-1,3-benzothiazol-4-yl]-2-(2H-tetrazol-5-yl)benzenesulfonamide] | 9.07 | 6.71 | 8.01 | 1.563 | 100 | 100 | –
12 | NS(=O)(=O)c1cccc(-c2cccc3sc(N[C@H]4CC[C@H](N)CC4)nc23)c1-c1nnn[nH]1 [Example 641, 3-[2-[(4-aminocyclohexyl)amino]-1,3-benzothiazol-4-yl]-2-(1H-tetrazol-5-yl)benzenesulfonamide] | 8.99 | 7.58 | 8.35 | 6.25 | 25 | 25 | –
13 | NCCCCNc1nc2c(-c3cccc(S(N)(=O)=O)c3-c3nnn[nH]3)cccc2s1 [Example 642, 3-[2-(4-aminobutylamino)-1,3-benzothiazol-4-yl]-2-(1H-tetrazol-5-yl)benzenesulfonamide] | 8.99 | 7.28 | 8.05 | 1.563 | 50 | 25 | –
14 | NCCCNc1nc2c(-c3cccc(S(N)(=O)=O)c3-c3nnn[nH]3)cccc2s1 [Example 643, 3-[2-(3-aminopropylamino)-1,3-benzothiazol-4-yl]-2-(1H-tetrazol-5-yl)benzenesulfonamide] | 8.63 | 7.00 | 7.91 | 1.563 | 25 | 25 | –
15 | NCCCCCNc1nc2c(-c3cccc(S(N)(=O)=O)c3-c3nnn[nH]3)cccc2s1 [Example 644, 3-[2-(5-aminopentylamino)-1,3-benzothiazol-4-yl]-2-(1H-tetrazol-5-yl)benzenesulfonamide] | 8.87 | 7.49 | – | 4.688 | 75 | 37.5 | 7.86
16 | CN(CCCCN)c1nc2c(-c3cccc(S(N)(=O)=O)c3-c3nnn[nH]3)cccc2s1 [Example 645, 3-[2-[4-aminobutyl(methyl)amino]-1,3-benzothiazol-4-yl]-2-(1H-tetrazol-5-yl)benzenesulfonamide] | 8.94 | 7.05 | – | 1.563 | 50 | 100 | 8.28
17 | NS(=O)(=O)c1cccc(-c2cccc3sc(NC4CCN(CCF)CC4)nc23)c1-c1nnn[nH]1 [Example 646, 3-[2-[[1-(2-fluoroethyl)-4-piperidyl]amino]-1,3-benzothiazol-4-yl]-2-(1H-tetrazol-5-yl)benzenesulfonamide] | 9.07 | 7.50 | – | 3.125 | 100 | 50 | 8.29
18 | NS(=O)(=O)c1cccc(-c2cnc3ncccn23)c1-c1nnn[nH]1 [Example 647, 3-imidazo[1,2-a]pyrimidin-3-yl-2-(1H-tetrazol-5-yl)benzenesulfonamide] | 7.85 | 6.21 | 7.08 | 0.25 | 6.25 | 18.75 | –
19 | N#Cc1ccc2ncc(-c3cccc(S(N)(=O)=O)c3-c3nnn[nH]3)n2c1 [Example 648, 3-(6-cyanoimidazo[1,2-a]pyridin-3-yl)-2-(1H-tetrazol-5-yl)benzenesulfonamide] | 8.29 | 7.02 | 7.82 | 1.563 | 12.5 | 6.25 | –
20 | N#Cc1cccc2ncc(-c3cccc(S(N)(=O)=O)c3-c3nnn[nH]3)n12 [Example 649, 3-(5-cyanoimidazo[1,2-a]pyridin-3-yl)-2-(1H-tetrazol-5-yl)benzenesulfonamide] | 8.54 | 7.32 | 7.89 | 2.344 | 12.5 | 3.125 | –
21 | NS(=O)(=O)c1cccc(-c2cnc3nc(C(F)(F)F)ccn23)c1-c1nnn[nH]1 [Example 650, 2-(1H-tetrazol-5-yl)-3-[7-(trifluoromethyl)imidazo[1,2-a]pyrimidin-3-yl]benzenesulfonamide] | 7.66 | 5.90 | 7.33 | 1.563 | 50 | 100 | –
